Test results reported in patent US20080274892A1, “Novel Haloalkylsulfonanilide Derivative, Herbicide, and Method of Use Thereof” (priority 2005, published 2008).

Tests used:
bulrush [1] = experiment: Test Example 1: herbicidal efficacy on rice paddy weeds pre-emergence; type: in vivo, Scirpus juncoides; settings: 21 days
Description: (§1) A 75 cm^2 plastic pot was filled with soil (clay loam) and planted seeds of bulrush which is a rice paddy weed. After covering the top with 75 cm^3 soil mixed with seeds of false pimpernel, the pot was filled with water so that the soil submerged under 5 cm depth of water. The predetermined effective dosage ([…]) of a formulation containing the compound of the present invention prepared according to Formulation Example 1-4 as an active ingredient was diluted in water and added to the pot water surface dropwise. The pot was kept in a hot house for 21 days and the herbicidal efficacy was investigated. The herbicidal efficacy was evaluated according to the following standard by comparing with untreated control. “-” in the table represents test not done.
(§2) The standard of judgment for herbicidal efficacy (degree of growth inhibition) and phytotoxicity 4 . . . 90%-100% of herbicidal efficacy or phytotoxicity 3 . . . 70%-89% of herbicidal efficacy or phytotoxicity 2 . . . 40%-69% of herbicidal efficacy or phytotoxicity 1 . . . 1%-39% of herbicidal efficacy or phytotoxicity 0 . . . 0% of herbicidal efficacy or phytotoxicity

false pimpernel [2] = experiment: as above; type: in vivo, Lindernia pyxidaria; settings: 21 days
Description: as §1, §2

barnyard glass = experiment: Test Example 2: herbicidal efficacy on rice paddy weeds post-emergence; type: in vivo, Echinochloa crus-galli; settings: post-emergence, one leaf stage, 21 days after treatment
Description: as §2
(§3) A 75 cm^2 plastic pot was filled with soil (clay loam) and planted seeds of barnyard glass and bulrush which is a rice paddy weed. After covering the top with 75 cm^3 soil mixed with seeds of false pimpernel, the pot was filled with water so that the soil submerged under 5 cm depth of water and kept in a hot house. […] The pot was kept in a hot house for 21 days after the treatment and the herbicidal efficacy was investigated and evaluated according to the standard in Test Example 1 by comparing with the untreated control. “-” in the table represents test not done.

bulrush [3] = experiment: as above; type: in vivo, Scirpus juncoides; settings: post-emergence, one leaf stage, 21 days after treatment
Description: as §2, §3

false pimpernel [4] = experiment: as above; type: in vivo, Lindernia pyxidaria; settings: post-emergence, one leaf stage, 21 days after treatment
Description: as §2, §3

[5] = tested on: paddy rice plant (cultivar: Nihonbare); experiment: Test Example 3: phytotoxicity test for transplanted paddy rice plant; type: in vivo; settings: transplanted rice, 21 days after treatment
Description: as §2
A 75 cm^2 plastic pot was filled with soil (clay loam), and water was added so that the soil was submerged under 5 cm depth of water. Two paddy rice plant (cultivar: Nihonbare) at two leaves stage were transplanted at the depth of 1 cm and kept in a hot house. […] The pot was kept in a hot house for 21 days after the treatment and the phytotoxicity was investigated and evaluated according to the standard in Test Example 1 by comparing with the untreated control. “-” in the table represents test not done.

[6] = dosage 1000 g/ha, treated 5 days after transplantation

| SMILES | Bulrush pre (herbicidal efficacy grade) (bulrush [1]; dosage 1000 g/ha) | False pimpernel pre (herbicidal efficacy grade) (false pimpernel [2]; dosage 1000 g/ha) | Burnyard grass post (herbicidal efficacy grade) (barnyard glass; dosage 1000 g/ha) | Bulrush post (herbicidal efficacy grade) (bulrush [3]; dosage 1000 g/ha) | False pimpernel post (herbicidal efficacy grade) (false pimpernel [4]; dosage 1000 g/ha) | Phytotoxicity to paddy rice [5, 6] | further results |
| --- | --- | --- | --- | --- | --- | --- | --- |
| CC(C)C1COC(=O)N1Cc1ccccc1NS(=O)(=O)C(F)(F)F (stereo not drawn) [Compound 1-9] | – | – | – | – | – | – | Bulrush pre (herbicidal efficacy grade) (bulrush [1]; dosage 300 g/ha): 4 (90%-100% of herbicidal efficacy or phytotoxicity); False pimpernel pre (herbicidal efficacy grade) (false pimpernel [2]; dosage 300 g/ha): 4 (90%-100% of herbicidal efficacy or phytotoxicity); Burnyard grass post (herbicidal efficacy grade) (barnyard glass; dosage 300 g/ha): 4 (90%-100% of herbicidal efficacy or phytotoxicity); Bulrush post (herbicidal efficacy grade) (bulrush [3]; dosage 300 g/ha): 4 (90%-100% of herbicidal efficacy or phytotoxicity); False pimpernel post (herbicidal efficacy grade) (false pimpernel [4]; dosage 300 g/ha): 2 (40%-69% of herbicidal efficacy or phytotoxicity); Phytotoxicity to paddy rice ([5]; dosage 300 g/ha): 2 (40%-69% of herbicidal efficacy or phytotoxicity) |
| O=C1OCCN1Cc1ccccc1NS(=O)(=O)C(F)(F)F [Compound 1-1] | 4 (90%-100% of herbicidal efficacy or phytotoxicity) | 4 (90%-100% of herbicidal efficacy or phytotoxicity) | 4 (90%-100% of herbicidal efficacy or phytotoxicity) | 4 (90%-100% of herbicidal efficacy or phytotoxicity) | 4 (90%-100% of herbicidal efficacy or phytotoxicity) | 1 (1%-39% of herbicidal efficacy or phytotoxicity) | – |
| CC(C)COC(=O)N(c1ccccc1CN1C(=O)SC(C)C1=O)S(=O)(=O)C(F)(F)F (stereo not drawn) [Compound 1-200] | 4 (90%-100% of herbicidal efficacy or phytotoxicity) | 2 (40%-69% of herbicidal efficacy or phytotoxicity) | 1 (1%-39% of herbicidal efficacy or phytotoxicity) | 3 (70%-89% of herbicidal efficacy or phytotoxicity) | 3 (70%-89% of herbicidal efficacy or phytotoxicity) | 0 (0% of herbicidal efficacy or phytotoxicity) | – |
| CCCCC1(C)CN(Cc2ccccc2N(C(=O)OC)S(=O)(=O)C(F)(F)F)C(=O)O1 (stereo not drawn) [Compound 1-128] | – | – | – | – | – | – | Bulrush pre (herbicidal efficacy grade) (bulrush [1]; dosage 100 g/ha): 2 (40%-69% of herbicidal efficacy or phytotoxicity); False pimpernel pre (herbicidal efficacy grade) (false pimpernel [2]; dosage 100 g/ha): 4 (90%-100% of herbicidal efficacy or phytotoxicity); Burnyard grass post (herbicidal efficacy grade) (barnyard glass; dosage 100 g/ha): 3 (70%-89% of herbicidal efficacy or phytotoxicity); Bulrush post (herbicidal efficacy grade) (bulrush [3]; dosage 100 g/ha): 3 (70%-89% of herbicidal efficacy or phytotoxicity); False pimpernel post (herbicidal efficacy grade) (false pimpernel [4]; dosage 100 g/ha): 2 (40%-69% of herbicidal efficacy or phytotoxicity); Phytotoxicity to paddy rice ([5]; dosage 100 g/ha as printed in the table line): 1 (1%-39% of herbicidal efficacy or phytotoxicity) |
| CCC1(C)CN(Cc2ccccc2N(C(=O)OC)S(=O)(=O)C(F)(F)F)C(=S)O1 (stereo not drawn) [Compound 1-182] | 4 (90%-100% of herbicidal efficacy or phytotoxicity) | 4 (90%-100% of herbicidal efficacy or phytotoxicity) | 4 (90%-100% of herbicidal efficacy or phytotoxicity) | 4 (90%-100% of herbicidal efficacy or phytotoxicity) | 4 (90%-100% of herbicidal efficacy or phytotoxicity) | 1 (1%-39% of herbicidal efficacy or phytotoxicity) | – |
| O=C1OC2(CCCCC2)CN1Cc1ccccc1NS(=O)(=O)C(F)(F)F [Compound 1-45] | 4 (90%-100% of herbicidal efficacy or phytotoxicity) | 4 (90%-100% of herbicidal efficacy or phytotoxicity) | 4 (90%-100% of herbicidal efficacy or phytotoxicity) | 4 (90%-100% of herbicidal efficacy or phytotoxicity) | 4 (90%-100% of herbicidal efficacy or phytotoxicity) | 2 (40%-69% of herbicidal efficacy or phytotoxicity) | – |
